Experimental findings from patent US12281118B2, “Nitrogen-containing fused heterocyclic SHP2 inhibitor compound, preparation method, and use” (SHANGHAI RINGENE BIOPHARMA CO., LTD., priority 2018, dated 2025) are described below.

Each structure is given as a SMILES string. Read-outs that look alike come from different tables or passages of the source.

One series concerns the target SHP2 enzyme (Homo sapiens (Human), UniProt Q06124). Description: Inhibitory activity against SHP2 enzyme (Caliper conversion rate). To be noted: read-out: SHP2 Enzyme Inhibition IC50 Value. The class given is biochemical. The protocol: (1) Preparing 1×Reaction Buffer according to the BPS Biosciences' Instructions for Use of the SHP2 enzyme. (2) Preparing a compound concentration gradient: Test the test compound at 10 μM under 3× dilution for 10 concentrations, diluting to a 100% dimethyl sulfoxide solution at a 100× final concentration in a 384-well plate, and diluting the compound with Precision 4× for 10 concentrations. Transferring 250 nL of the compound at the 100× final concentration to a target plate OptiPlate-384F using a dispenser Echo 550. […] (3) Preparing the activation peptide solution at a 5× final concentration with the 1×Reaction Buffer, adding 5 μL of the solution to a reaction plate, respectively, and centrifuging at 1000 rpm for 1 min. (4) Preparing an enzyme solution at a 2.5× final concentration with the 1×Reaction Buffer, adding 10 μL of the solution to the reaction plate, respectively, centrifuging at 1000 rpm for 1 min, and incubating at room temperature for 60 min. (5) Preparing a substrate peptide solution at a 2.5× final concentration with the 1×Reaction Buffer, centrifuging at 1000 rpm for 1 min, and incubating at room temperature for 30 min. (6) Adding 30 μL of stop test solution to stop the reaction, centrifuging at 1000 rpm for […], and mixing well by shaking. (7) Reading the conversion rate with a Caliper EZ Reader. (7) Data analysis:
Wherein: Conversion %/_sample is the reading of a conversion rate of a sample; Conversion %_min: mean of negative control wells, which represents the reading of a conversion rate in absence of enzyme activity wells; Conversion %_max: mean of a ratio of positive control wells, which represents the reading of a conversion rate in absence of compound inhibition wells.

In the next series the target is CYP1A2 (Homo sapiens (Human), UniProt P05177). In words: CYP direct inhibition test (DI test) in human liver microsomes. The class given is in vitro ADME. The protocol: Direct inhibition test (DI test): Incubating 100 μL of human liver microsomes (final concentration 0.2 mg/mL) containing NADPH (final concentration 1 mM), 10 μM of compound, a positive inhibitor cocktail (ketoconazole 10 μM, quinidine 10 μM, sulfaphenazole 100 μM, a-naphthoflavone 10 μM, and tranylcypromine 1,000 μM), a negative control (BPS containing 0.1% dimethyl sulfoxide) and a mixed probe substrate (midazolam 10 μM, testosterone 100 μM, dextromethorphan 10 μM, diclofenac 20 μM, phenacetin 100 μM, and mephenytoin 100 μM) for direct inhibition, and terminating the reaction after 20 min of the incubation. Calculating the relative enzyme activity by measuring the relative production of metabolites.

Series [1] can be described thus: In vivo pharmacokinetic parameters. Details: AUC: unit not given here. The conditions noted are these: plasma, po; for AUC: read-out: Area under the curve AUC; for bioavailability: read-out: Bioavailability F; for half-life: read-out: Half-life T1/2 (converted); for Cmax: read-out: Maximum plasma concentration Cmax. The protocol:
Dividing 6 SPF-grade laboratory animals into two groups, and preparing the test compound to a suitable solution or suspension; intravenously administering animals in one group, and orally administering animals in the other group. Collecting blood via jugular vein puncture at approximately 0.2 mL/time point for each sample, anticoagulating with sodium heparin, wherein the time points for blood collection is as follows: pre-dose, and 5, 15 and 30 min, and 1, 2, 4, 6, 8, and 24 h post-dose; placing the collected blood samples on ice, separating plasma by centrifugation (centrifugation conditions: 8,000 rpm, 6 min, 2-8° C.), and storing the collected plasma at −80° C. before analysis. Analyzing plasma samples using LC-MS/MS.
Based on the plasma concentration data of the drug, pharmacokinetic parameters such as AUC0-t, AUC0-∞, MRT0-∞, Cmax, Tmax, T1/2 and Vd of a test sample, as well as mean and standard deviations thereof are calculated using a pharmacokinetic calculation software WinNonlin 5.2 noncompartmental model. In addition, the bioavailability (F) is calculated by the following formula.
For samples with concentrations below the lower limit of quantification, samples taken before reaching Cmax should be calculated as zero for calculations of the pharmacokinetic parameter, and samples taken at sampling points after reaching Cmax should be calculated as non-quantifiable (BLQ) (specific results are shown in Table 3).

Another series addresses PTP1B (Homo sapiens (Human), UniProt P18031). Description: Inhibitory activity against different phosphatases. Format: biochemical. The conditions noted are these: read-out: IC50 against phosphatase PTP1B. As to the method:
(§1) Allowing compound solutions (10 μM, 3× dilution at eight gradients) of examples reacted with phosphatases such as SHP1, LMW-PTP, LYP, MKP3, PTP1B, PTPN2, PTPN6, VHR, CDC25A, PTPRR, etc. according to a similar method shown in Test Example 1 to test the inhibitory activity of the compounds on the phosphatases described above.

In a further series the target is SHP1 (Homo sapiens (Human), UniProt P29350). In words: Inhibitory activity against different phosphatases. The conditions noted are these: read-out: IC50 against phosphatase SHP1. The class given is biochemical. As to the method:
as §1

For series [2], the system named is MV 4-11/KYSE520/NCI-H358 tumor cell xenografts. Description: Xenograft study in nude mice: tolerance and westernblot assay of tumor tissues. The class given is in vivo. An excerpt:
Experimental method: 1) Culturing MV 4-11/KYSE520/NCI-H358 cells in a culture medium containing 10% fetal bovine serum. Harvesting tumor cells at an exponential growth phase, and resuspending in PBS to suitable concentrations for subcutaneous tumor inoculation in nude mice. 2) Subcutaneously inoculating 2-8×10^7 tumor cells at the right back of a mouse, and resuspending the cells in PBS and matrigel (1:1); observing tumor growth regularly, and randomizing mice for administration based on tumor size and mouse body weight when tumors grow to a mean volume of ˜120 mm^3-[…]. 3) Defining the day of tumor cell inoculation as Day 0. Prior to the start of dosing, weighing all animals and measuring the tumor volume with a vernier caliper. 3) Administering orally compound of examples (prepared with water for injection containing 1% Tween80 to a desired concentration for use) at a given dose for three consecutive weeks, and giving an equal amount of solvent animals in a solvent control group. Measuring diameters of the xenograft twice a week throughout the experiment, and weighing the mice were at the same time.

SHP2 enzyme, sequence (Q06124 whole entry): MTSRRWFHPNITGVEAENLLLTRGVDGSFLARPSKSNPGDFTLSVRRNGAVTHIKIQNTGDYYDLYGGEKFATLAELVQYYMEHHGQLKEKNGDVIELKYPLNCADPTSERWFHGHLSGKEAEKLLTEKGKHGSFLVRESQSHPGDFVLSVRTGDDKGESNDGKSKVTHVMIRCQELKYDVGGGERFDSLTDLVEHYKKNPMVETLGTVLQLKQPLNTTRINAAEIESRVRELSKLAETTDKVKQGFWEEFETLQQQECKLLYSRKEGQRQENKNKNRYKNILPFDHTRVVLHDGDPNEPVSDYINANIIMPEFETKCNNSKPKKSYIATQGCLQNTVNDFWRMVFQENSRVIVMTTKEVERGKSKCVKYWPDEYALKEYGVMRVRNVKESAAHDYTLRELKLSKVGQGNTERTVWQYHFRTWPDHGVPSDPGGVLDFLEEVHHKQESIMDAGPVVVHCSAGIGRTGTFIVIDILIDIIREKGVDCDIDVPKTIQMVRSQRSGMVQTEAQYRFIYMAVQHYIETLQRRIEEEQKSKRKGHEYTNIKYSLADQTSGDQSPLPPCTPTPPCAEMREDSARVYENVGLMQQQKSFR
SHP1, sequence (P29350 whole entry): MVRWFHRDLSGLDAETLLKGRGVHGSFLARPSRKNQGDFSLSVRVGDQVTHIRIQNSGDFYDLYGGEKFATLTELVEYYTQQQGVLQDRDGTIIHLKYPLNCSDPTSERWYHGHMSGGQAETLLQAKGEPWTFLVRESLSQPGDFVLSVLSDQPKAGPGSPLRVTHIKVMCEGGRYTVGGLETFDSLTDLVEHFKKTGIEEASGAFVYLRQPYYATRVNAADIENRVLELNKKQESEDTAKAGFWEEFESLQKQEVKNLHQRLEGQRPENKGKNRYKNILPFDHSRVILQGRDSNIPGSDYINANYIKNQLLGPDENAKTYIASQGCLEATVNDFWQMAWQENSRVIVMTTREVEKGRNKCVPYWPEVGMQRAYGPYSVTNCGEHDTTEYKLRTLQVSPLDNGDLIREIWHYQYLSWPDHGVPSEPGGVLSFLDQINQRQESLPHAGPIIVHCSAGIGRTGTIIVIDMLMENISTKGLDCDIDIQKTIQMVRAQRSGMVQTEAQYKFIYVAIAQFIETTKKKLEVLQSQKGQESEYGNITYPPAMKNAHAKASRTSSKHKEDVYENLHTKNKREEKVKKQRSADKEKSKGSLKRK
PTP1B, sequence (P18031 whole entry, species assumed): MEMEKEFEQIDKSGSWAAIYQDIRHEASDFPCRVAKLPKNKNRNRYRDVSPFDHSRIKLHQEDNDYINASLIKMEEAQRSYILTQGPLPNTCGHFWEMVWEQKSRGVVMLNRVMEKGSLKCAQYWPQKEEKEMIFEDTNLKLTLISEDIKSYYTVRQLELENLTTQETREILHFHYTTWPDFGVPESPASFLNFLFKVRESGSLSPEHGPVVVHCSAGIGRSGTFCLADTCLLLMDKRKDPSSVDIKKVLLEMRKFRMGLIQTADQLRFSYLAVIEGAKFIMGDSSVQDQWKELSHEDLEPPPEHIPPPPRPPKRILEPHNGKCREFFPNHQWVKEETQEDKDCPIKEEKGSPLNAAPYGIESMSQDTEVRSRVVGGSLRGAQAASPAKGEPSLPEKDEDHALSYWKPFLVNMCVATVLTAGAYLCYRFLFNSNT
CYP1A2, sequence (P05177 whole entry): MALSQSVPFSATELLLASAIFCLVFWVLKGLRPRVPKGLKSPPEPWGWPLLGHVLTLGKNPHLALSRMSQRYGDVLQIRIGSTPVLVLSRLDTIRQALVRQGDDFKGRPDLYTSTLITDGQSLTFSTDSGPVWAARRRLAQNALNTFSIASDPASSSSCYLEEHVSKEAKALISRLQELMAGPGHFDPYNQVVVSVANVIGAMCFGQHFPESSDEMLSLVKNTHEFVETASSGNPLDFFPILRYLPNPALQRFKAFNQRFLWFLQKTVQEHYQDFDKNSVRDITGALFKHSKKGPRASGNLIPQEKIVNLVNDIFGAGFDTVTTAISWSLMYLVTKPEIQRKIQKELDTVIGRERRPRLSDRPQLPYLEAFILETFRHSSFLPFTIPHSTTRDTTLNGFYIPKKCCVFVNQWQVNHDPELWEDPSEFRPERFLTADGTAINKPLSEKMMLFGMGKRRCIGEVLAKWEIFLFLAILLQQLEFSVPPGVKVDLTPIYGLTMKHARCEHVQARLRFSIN

As for `Nc1nccc(Sc2c(N)nc(N3CCC4(CC3)Cc3ccccc3[C@H]4N)n3ccnc23)c1Cl` [Example 4, (S)-1′-(7-amino-8-((2-amino-3-chloropyridin-4-yl)thio)imidazo [1,2-c]pyrimidin-5-yl)-1,3-dihydrospiro [indene-2,4′-piperidine]-1-amine], the IC50 at SHP2 enzyme turned out to be 0.0019 µM. The IC50 against CYP1A2 was above 25 µM. In series [1] (Mouse, 5 mg/kg), the AUC is 557, the bioavailability amounted to 20%, the half-life was 10.9 h and the Cmax came to 79 nM. The IC50 at PTP1B was above 0.5 µM. Moreover, the IC50 on SHP1 was above 0.5 µM.

In the case of `Cc1nc(N2CCC3(CC2)Cc2ccccc2[C@H]3N)n2ccnc2c1Sc1ccnc(N)c1Cl` [Example 1, (S)-1′-(8-((2-amino-3-chloropyridin-4-yl)thio)-7-methylimidazo [1,2-c]pyrimidin-5-yl)-1,3-dihydrospiro [indene-2,4′-piperidine]-1-amine], the IC50 is 0.0044 µM on SHP2 enzyme, above 25 µM at CYP1A2, above 0.5 µM at PTP1B and above 0.5 µM on SHP1. For the same molecule, the AUC amounted to 18200 in series [1] (Beagle Dog, 5 mg/kg); 5840 in series [1] (Mouse, 5 mg/kg); 3540 in series [1] (Rat, (so in the source)). Moreover, the bioavailability is 162% in series [1] (Beagle Dog, 5 mg/kg); 61% in series [1] (Mouse, 5 mg/kg); 64% in series [1] (Rat, 5 g/kg (so in the source)). The half-life in series [1] (Beagle Dog, 5 mg/kg) was 10.9 h; in series [1] (Mouse, 5 mg/kg) it was 11.8 h; in series [1] (Rat, 5 g/kg (so in the source)) it was 22.3 h. Further, the Cmax came to 907 nM in series [1] (Beagle Dog, 5 mg/kg); 306 nM in series [1] (Mouse, 5 mg/kg); 211 nM in series [1] (Rat, 5 g/kg (so in the source)). Besides, the “inhibition of the signaling pathway in tumor tissues (westernblot)” value in series [2] (24 hours after the last dosing) is reported as “can still inhibit the signaling pathway in tumor tissues continuously 24 hours after the last dosing”. Also, the “tolerance of the experimental animals” value in series [2] (nude mice with xenografts, oral dosing for three weeks) is on record as “well tolerated”.
